Results from patent US20230391774A1, “Novel Compounds” (AC Immune SA, priority 2020, published 2023).

biological target: T1, Tau K18 fragment aggregates (amino acids 244 to 372 of human Tau441) (Homo sapiens, UniProt P10636); test: Tau K18 disaggregation assay by ThT; format: biochemical; conditions: ThT fluorescence; 2 μM K18 aggregates, 30 minutes at RT
T1 construct: encompassing amino acids 244 to 372 of the longest isoform (2N4R) of human Tau441; purchased Biotechne; host or cells: bacteria
T1 sequence (P10636 561-689): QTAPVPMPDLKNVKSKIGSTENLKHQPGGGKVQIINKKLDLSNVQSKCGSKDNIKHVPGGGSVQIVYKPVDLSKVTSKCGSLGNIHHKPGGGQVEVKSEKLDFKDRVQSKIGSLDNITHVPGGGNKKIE
Procedure: Tau K18 Disaggregation Assay by ThT
The Tau K18 fragment, encompassing amino acids 244 to 372 of the longest isoform (2N4R) of human Tau441, was expressed in bacteria and purified (Biotechne). For the K18 disaggregation assay by ThT, 35 μM of recombinant K18 in PBS were aggregated for 24 hours at 37° C. in presence of 25 μM of heparin (Sigma-Aldrich) and 10 mM of 1,4-Dithiothreito (DTT from Sigma-Aldrich) under shaking at 750 RPM. Compound 1 was dissolved in anhydrous dimethyl sulfoxide (DMSO, Sigma-Aldrich) to reach a concentration of 10 mM. K18 aggregates and serial dilutions of compounds were mixed together in PBS (volume 50 μL) to a final concentration of 2 μM of K18 aggregates and from 400 to 0.1 μM of Compound 1. The mixture was incubated for 30 minutes at room temperature (RT), then 40 μL of this mixture were transferred into a black 384-well plate assay (Perkin-Elmer) and mixed with 10 μL of 100 μM ThT in 250 mM glycine (both from Sigma-Aldrich) in PBS. Fluorescence (relative fluorescence units; RFU) was measured in monoplicate or duplicate on a Tecan reader (excitation: 440 nm; emission: 485 nm). Percentage of K18 disaggregation was then calculated and half maximal effective concentration (EC50) was determined using GraphPad Prism version 8 (GraphPad Software) assuming a one-binding site fitting model, see Table 3 and Table 4.

| EC50 | Compound |
| --- | --- |
| 10 to 50 µM | O=C(Nc1ccc2nc(N3CCOCC3)oc2c1)c1c[nH]c2ccccc12 [Example 14, N-(2-morpholinobenzo[d]oxazol-6-yl)-1H-indole-3-carboxamide] |
| 10 to 50 µM | O=C(Nc1ccc2nc(N3CCOCC3)oc2c1)c1c[nH]c2ncccc12 [Example 15, N-(2-morpholinobenzo[d]oxazol-6-yl)-1H-pyrrolo[2,3-b]pyridine-3-carboxamide] |
| 10 to 50 µM | O=C(Nc1ccc2nc(N3CCOCC3)oc2c1)c1n[nH]c2ccccc12 [Example 16, N-(2-morpholinobenzo[d]oxazol-6-yl)-1H-indazole-3-carboxamide] |
| 10 to 50 µM | Cn1cc(C2CCN(c3ccc4oc(N5CCOCC5)nc4c3)CC2)c2cc(F)cnc21 [Example 23, 5-(4-(5-fluoro-1-methyl-1H-pyrrolo[2,3-b]pyridin-3-yl)piperidin-1-yl)-2-morpholinobenzo[d]oxazole] |
| 1 to 10 µM | Cn1cc(C2CCN(c3ccc4oc(N5CCOCC5)nc4c3)C2)c2cc(F)cnc21 (stereo not shown) [Example 34, 5-(3-(5-fluoro-1-methyl-1H-pyrrolo[2,3-b]pyridin-3-yl)pyrrolidin-1-yl)-2-morpholinobenzo[d]oxazole] |

biological target: T2, flTau aggregates (longest isoform of human Tau, 2N4R) (Homo sapiens, UniProt P10636); test: Full-length Tau (flTau) disaggregation assay by Thioflavin T (ThT); format: biochemical; conditions: ThT fluorescence; 60 nM flTau aggregates, 30 minutes at RT; read-out: flTau disaggregation EC50
T2 construct: 35 μM of recombinant full-length (fl) Tau in phosphate-buffered saline (PBS) were aggregated; purchased Biotechne; host or cells: bacteria
T2 sequence (P10636 1-441 isoform P10636-8): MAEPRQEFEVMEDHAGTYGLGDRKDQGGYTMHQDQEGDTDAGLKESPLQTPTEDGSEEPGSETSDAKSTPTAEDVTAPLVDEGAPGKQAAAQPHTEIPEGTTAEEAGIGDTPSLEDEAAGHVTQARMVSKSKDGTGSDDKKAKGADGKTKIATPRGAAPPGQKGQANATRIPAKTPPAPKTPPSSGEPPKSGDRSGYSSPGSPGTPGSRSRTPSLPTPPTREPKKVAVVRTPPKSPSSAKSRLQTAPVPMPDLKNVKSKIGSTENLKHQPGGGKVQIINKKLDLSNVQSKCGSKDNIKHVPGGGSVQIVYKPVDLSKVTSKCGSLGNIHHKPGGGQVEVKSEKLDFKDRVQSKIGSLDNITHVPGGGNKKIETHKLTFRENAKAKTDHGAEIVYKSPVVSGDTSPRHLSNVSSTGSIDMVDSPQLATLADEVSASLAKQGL
Procedure: Full-Length Tau (flTau) Disaggregation Assay by Thioflavin T (ThT)
The longest isoform of human Tau (2N4R; 441 amino acids) was expressed in bacteria and purified (Biotechne). For the Tau disaggregation assay by ThT, 35 μM of recombinant full-length (fl) Tau in phosphate-buffered saline (PBS) were aggregated for 72 hours at 37° C. in presence of 35 μM of heparin (Sigma-Aldrich) and 10 mM of […] (Sigma-Aldrich) under shaking at 1000 RPM. Compound 1 was dissolved in anhydrous dimethyl sulfoxide (DMSO, Sigma-Aldrich) to reach a concentration of 2.5 mM. flTau aggregates and serial dilutions of compound 1 were mixed together in PBS (volume 50 μL) to a final concentration of 60 nM of flTau aggregates and from 20 to 0.0012 μM of Compound 1. The mixture was incubated for 30 minutes at room temperature (RT), then 40 μL of this mixture were transferred into a black 384-well plate assay (Perkin-Elmer) and mixed with 10 μL of 20 μM ThT in 250 mM glycine (both from Sigma-Aldrich) in PBS. Fluorescence (relative fluorescence units; RFU) was measured in monoplicate or duplicate on a Tecan reader (excitation: 440 nm; emission: 485 nm). Percentage of flTau disaggregation was then calculated and the half maximal effective concentration (EC50) was determined using GraphPad Prism version 8 (GraphPad Software) assuming a one-binding site fitting model, see Table 3 and Table 4.

| Compound | EC50 |
| --- | --- |
| Cn1cc(C2CCN(c3ccc4sc(N5CCOCC5)nc4c3)C2)c2cc(F)cnc21 (stereo not shown) [Example 81, 4-(5-(3-(5-fluoro-1-methyl-1H-pyrrolo[2,3-b]pyridin-3-yl)pyrrolidin-1-yl)benzo[d]thiazol-2-yl)morpholine] | < 1 µM |
| Cn1cc(C2CCN(c3ccc4nc(N5CCOCC5)sc4c3)C2)c2cc(F)cnc21 (stereo not shown) [Example 82, 4-(6-(3-(5-fluoro-1-methyl-1H-pyrrolo[2,3-b]pyridin-3-yl)pyrrolidin-1-yl)benzo[d]thiazol-2-yl)morpholine] | < 1 µM |
| Cn1cc(C2CCN(c3ccc4nc(N5CCOCC5)sc4c3)C2)c2cc(F)cnc21 (stereo not shown) [Example 83, 4-(6-(3-(5-fluoro-1-methyl-1H-pyrrolo[2,3-b]pyridin-3-yl)pyrrolidin-1-yl)benzo[d]thiazol-2-yl)morpholine] | < 1 µM |
| Cn1cc(C2CCN(c3cnc4oc(N5CCOCC5)nc4c3)C2)c2cc(F)cnc21 (stereo not shown) [Example 84, 6-(3-(5-fluoro-1-methyl-1H-pyrrolo[2,3-b]pyridin-3-yl)pyrrolidin-1-yl)-2-morpholinooxazolo[5,4-b]pyridine] | 1 to 10 µM |
| Cn1cc(C2CCN(c3cnc4oc(N5CCOCC5)nc4c3)C2)c2cc(F)cnc21 (stereo not shown) [Example 85, 6-(3-(5-fluoro-1-methyl-1H-pyrrolo[2,3-b]pyridin-3-yl)pyrrolidin-1-yl)-2-morpholinooxazolo[5,4-b]pyridine] | < 1 µM |
| Cn1cc(C2CCN(c3cc4nc(N5CCOCC5)oc4cn3)C2)c2cc(F)cnc21 (stereo not shown) [Example 86, 6-(3-(5-fluoro-1-methyl-1H-pyrrolo[2,3-b]pyridin-3-yl)pyrrolidin-1-yl)-2-morpholinooxazolo[5,4-c]pyridine] | 1 to 10 µM |
| Cn1cc(C2CCN(c3cc4nc(N5CCOCC5)oc4cn3)C2)c2cc(F)cnc21 (stereo not shown) [Example 87, 6-(3-(5-fluoro-1-methyl-1H-pyrrolo[2,3-b]pyridin-3-yl)pyrrolidin-1-yl)-2-morpholinooxazolo[5,4-c]pyridine] | 1 to 10 µM |

Continued, values first:

| EC50 | Compound |
| --- | --- |
| < 1 µM | Cn1cc(C2CCN(c3ccc4nc(N5CCOCC5)oc4c3)C2)c2cc(F)cnc21 (stereo not shown) [Example 88, 6-(3-(5-fluoro-1-methyl-1H-pyrrolo[2,3-b]pyridin-3-yl)pyrrolidin-1-yl)-2-morpholinobenzo[d]oxazole] |
| < 1 µM | Cn1cc(C2CCN(c3ccc4nc(N5CCOCC5)oc4c3)C2)c2cc(F)cnc21 (stereo not shown) [Example 89, 6-(3-(5-fluoro-1-methyl-1H-pyrrolo[2,3-b]pyridin-3-yl)pyrrolidin-1-yl)-2-morpholinobenzo[d]oxazole] |
| < 1 µM | Cn1cc(C2CCN(c3ccc4oc(N5CCOCC5)nc4n3)C2)c2cc(F)cnc21 (stereo not shown) [Example 90, 5-(3-(5-fluoro-1-methyl-1H-pyrrolo[2,3-b]pyridin-3-yl)pyrrolidin-1-yl)-2-morpholinooxazolo[4,5-b]pyridine] |
| < 1 µM | Cn1cc(C2CCN(c3ccc4oc(N5CCOCC5)nc4n3)C2)c2cc(F)cnc21 (stereo not shown) [Example 91, 5-(3-(5-fluoro-1-methyl-1H-pyrrolo[2,3-b]pyridin-3-yl)pyrrolidin-1-yl)-2-morpholinooxazolo[4,5-b]pyridine] |
| 1 to 10 µM | COc1cccc2c(C3CCN(c4ccc5oc(N6CCOCC6)nc5c4)CC3)n[nH]c12 [Example 92, 5-(4-(7-methoxy-1H-indazol-3-yl)piperidin-1-yl)-2-morpholinobenzo[d]oxazole] |
| 1 to 10 µM | Cc1cccc2[nH]nc(C3CCN(c4ccc5oc(N6CCOCC6)nc5c4)CC3)c12 [Example 93, 5-(4-(4-methyl-1H-indazol-3-yl)piperidin-1-yl)-2-morpholinobenzo[d]oxazole] |
| 1 to 10 µM | FC1CN(c2ccc3oc(N4CCOCC4)nc3c2)CCC1c1n[nH]c2ccccc12 (stereo not shown) [Example 94, 5-(3-fluoro-4-(1H-indazol-3-yl)piperidin-1-yl)-2-morpholinobenzo[d]oxazole] |
| 1 to 10 µM | Cn1cc(C2CCN(c3ccc4sc(N5CCOCC5)nc4c3)C2)c2cc(F)cnc21 (stereo not shown) [Example 95, 4-(5-(3-(5-fluoro-1-methyl-1H-pyrrolo[2,3-b]pyridin-3-yl)pyrrolidin-1-yl)benzo[d]thiazol-2-yl)morpholine] |
| 1 to 10 µM | COC1CCN(c2nc3cc(N4CCC(c5cn(C)c6ncc(F)cc56)C4)ccc3o2)CC1 (stereo not shown) [Example 96, 5-(3-(5-fluoro-1-methyl-1H-pyrrolo[2,3-b]pyridin-3-yl)pyrrolidin-1-yl)-2-(4-methoxypiperidin-1-yl)benzo[d]oxazole] |
| 1 to 10 µM | COC1CCN(c2nc3cc(N4CCC(c5cn(C)c6ncc(F)cc56)C4)ccc3o2)CC1 (stereo not shown) [Example 97, 5-(3-(5-fluoro-1-methyl-1H-pyrrolo[2,3-b]pyridin-3-yl)pyrrolidin-1-yl)-2-(4-methoxypiperidin-1-yl)benzo[d]oxazole] |
| 1 to 10 µM | c1ccc2c(C3CCN(c4cnc5nc(N6CCOCC6)oc5c4)CC3)c[nH]c2c1 [Example 100, 6-(4-(1H-indol-3-yl)piperidin-1-yl)-2-morpholinooxazolo[4,5-b]pyridine] |
| 10 to 50 µM | Cn1cc(C2CCN(c3ccc4oc(N5CCOCC5)nc4c3)CC2)c2ncc(F)cc21 [Example 105, 5-(4-(6-fluoro-1-methyl-1H-pyrrolo[3,2-b]pyridin-3-yl)piperidin-1-yl)-2-morpholinobenzo[d]oxazole] |
| 1 to 10 µM | c1ccc2c(C3CCN(c4ccc5nc(N6CCOCC6)sc5n4)CC3)n[nH]c2c1 [Example 106, 4-(5-(4-(1H-indazol-3-yl)piperidin-1-yl)thiazolo[5,4-b]pyridin-2-yl)morpholine] |
| < 1 µM | C1=C(c2c[nH]c3ccccc23)CCN(c2ccc3oc(N4CCOCC4)nc3c2)C1 [Example 107, 5-(4-(1H-indol-3-yl)-3,6-dihydropyridin-1(2H)-yl)-2-morpholinobenzo[d]oxazole] |

same assay, conditions: flTau disaggregation EC50, ThT fluorescence; 60 nM flTau aggregates, 30 minutes at RT

| Compound | EC50 |
| --- | --- |
| Cn1cc(C2CCN(c3ccc4oc(N5CC6CC(C5)O6)nc4c3)C2)c2cc(F)cnc21 (stereo not shown) [Example 98, 3-(5-(3-(5-fluoro-1-methyl-1H-pyrrolo[2,3-b]pyridin-3-yl)pyrrolidin-1-yl)benzo[d]oxazol-2-yl)-6-oxa-3-azabicyclo[3.1.1]heptane] | 1 to 10 µM |

same assay, conditions: read-out: flTau disaggregation EC50; ThT fluorescence; 60 nM flTau aggregates, 30 minutes at RT

| Compound | EC50 |
| --- | --- |
| Cn1cc(C2CCN(c3ccc4oc(N5CC6CC(C5)O6)nc4c3)C2)c2cc(F)cnc21 (stereo not shown) [Example 99, 3-(5-(3-(5-fluoro-1-methyl-1H-pyrrolo[2,3-b]pyridin-3-yl)pyrrolidin-1-yl)benzo[d]oxazol-2-yl)-6-oxa-3-azabicyclo[3.1.1]heptane] | 1 to 10 µM |
